Data on 28 compounds can be found in patent US9242996B2 (Novartis AG, priority 2013, dated 2016).

The target in this assay is activated ERK2 (Homo sapiens (Human), UniProt P28482). Description: Activated ERK2 (20 pM) Kinase Assay (AlphaScreen, ERKtide phosphorylation). Format: biochemical. Particulars: 0.02 nM ERK2, 400 nM ERKtide peptide, 35 μM ATP, 30 min preincubation. An outline of the steps: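 Activated human ERK2 (0.02 nM) preincubated 30 min with compounds, then 400 nM ERKtide and 35 μM ATP added for 4 h at ambient temperature in HEPES pH 7.5, MgCl2, DTT, Tween-20, BSA. EDTA stop; phospho-peptide read by AlphaScreen after overnight dark incubation; four-parameter IC50.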
activated ERK2, sequence (P28482 whole entry): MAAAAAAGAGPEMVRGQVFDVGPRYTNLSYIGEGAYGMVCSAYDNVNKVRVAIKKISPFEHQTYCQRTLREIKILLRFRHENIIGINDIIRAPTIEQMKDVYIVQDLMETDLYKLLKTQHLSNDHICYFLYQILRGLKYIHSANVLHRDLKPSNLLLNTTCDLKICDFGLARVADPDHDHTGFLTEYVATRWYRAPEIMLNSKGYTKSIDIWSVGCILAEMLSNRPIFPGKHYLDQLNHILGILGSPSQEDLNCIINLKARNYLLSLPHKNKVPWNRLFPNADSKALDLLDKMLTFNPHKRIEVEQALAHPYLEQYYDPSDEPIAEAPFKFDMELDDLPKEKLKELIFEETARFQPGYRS
By IC50 is commonly meant the concentration that inhibits the measured activity by half. High values mean weaker potency in that assay, low ones greater potency in that assay. In the case of `COC(=O)NC[C@@H](NC(=O)c1ccc(-c2nc(C3CCOCC3)cnc2N)cc1F)c1cccc(Cl)c1` [Example 407, (S)-methyl (2-(4-(3-amino-6-(tetrahydro-2H-pyran-4-yl)pyrazin-2-yl)-2-fluoro-benzamido)-2-(3-chlorophenyl)ethyl)carbamate], the IC50 stood at 0.333 nM.

Compound `CC(=O)NC[C@@H](NC(=O)c1ccc(-c2nc(C3CCOCC3)cnc2N)cc1F)c1cc(F)cc(Br)c1` [Example 408, (S)-N-(2-acetamido-1-(3-bromo-5-fluorophenyl)ethyl)-4-(3-amino-6-(tetrahydro-2H-pyran-4-yl)pyrazin-2-yl)-2-fluorobenzamide] came in with an IC50 of 0.0201 nM.

In the case of `COC(=O)NC[C@@H](NC(=O)c1ccc(-c2nc(C3CCOCC3)cnc2N)cc1F)c1cccc(Br)c1` [Example 409, (S)-methyl (2-(4-(3-amino-6-(tetrahydro-2H-pyran-4-yl)pyrazin-2-yl)-2-fluoro-benzamido)-2-(3-bromophenyl)ethyl)carbamate], the IC50 worked out at 0.225 nM.

In the case of `COC(=O)NC[C@@H](NC(=O)c1ccc(-c2nc(C3CCOCC3)cnc2N)cc1F)c1cc(F)cc(Br)c1` [Example 410, (S)-methyl (2-(4-(3-amino-6-(tetrahydro-2H-pyran-4-yl)pyrazin-2-yl)-2-fluoro-benzamido)-2-(3-bromo-5-fluorophenyl)ethyl) carbamate], the IC50 was determined as 0.0943 nM.

Consider `Nc1ncc(C2CCOCC2)nc1-c1ccc(C(=O)N[C@H](CNCCF)c2cc(F)cc(Br)c2)c(F)c1` [Example 411, (S)-4-(3-amino-6-(tetrahydro-2H-pyran-4-yl)pyrazin-2-yl)-N-(1-(3-bromo-5-fluorophenyl)-2-((2-fluoroethyl)amino)ethyl)-2-fluorobenzamide], for which the IC50 worked out at 0.0743 nM.

Take `Nc1ncc([C@H]2CC[C@H](O)CC2)nc1-c1ccc(C(=O)N[C@H](CNCCF)c2cc(F)cc(Br)c2)c(F)c1` [Example 412, 4-(3-amino-6-((1r,4S)-4-hydroxy-cyclohexyl)pyrazin-2-yl)-N-((S)-1-(3-bromo-5-fluorophenyl)-2-((2-fluoroethyl)amino)ethyl)-2-fluorobenzamide]: the IC50 worked out at 0.374 nM.

Consider `NC[C@@H](NC(=O)c1ccc(-c2nc(C3CCOCC3)cnc2N)cc1F)c1cccc(Br)c1` [Example 414, (S)-N-(2-amino-1-(3-bromophenyl)ethyl)-4-(3-amino-6-(tetrahydro-2H-pyran-4-yl)pyrazin-2-yl)-2-fluorobenzamide], for which half-maximal inhibition (IC50) required 0.02 nM.

`Nc1ncc(C2CCC(F)(F)CC2)nc1-c1ccc(C(=O)N[C@H](CO)c2cccc(Cl)c2)c(F)c1` [Example 435, (S)-4-(3-amino-6-(4,4-difluoro-cyclohexyl)pyrazin-2-yl)-N-(1-(3-chlorophenyl)-2-hydroxyethyl)-2-fluorobenzamide]: the IC50 was found to be 0.105 nM.

`Nc1ncc([C@H]2CC[C@H](O)CC2)nc1-c1ccc(C(=O)N[C@H](CO)c2cccc(Br)c2)c(F)c1` [Example 436, 4-(3-amino-6-((1r,4S)-4-hydroxy-cyclohexyl)pyrazin-2-yl)-N-((S)-1-(3-bromophenyl)-2-hydroxyethyl)-2-fluorobenzamide] had an IC50 of 0.0485 nM.

In turn, `Nc1ncc([C@H]2CC[C@@H](O)CC2)cc1-c1ccc(C(=O)N[C@H](CO)c2cccc(Cl)c2)c(F)c1` [Example 440, 4-(2-amino-5-((1s,4R)-4-hydroxy-cyclohexyl)pyridin-3-yl)-N-((S)-1-(3-chlorophenyl)-2-hydroxyethyl)-2-fluorobenzamide] gave an IC50 of 0.0701 nM.

With `COC(=O)N[C@H]1CC[C@H](c2cnc(N)c(-c3ccc(C(=O)N[C@H](CO)c4cc(F)cc(Br)c4)c(F)c3)n2)CC1` [Example 441, Methyl ((1S,4r)-4-(5-amino-6-(4-(((S)-1-(3-bromo-5-fluorophenyl)-2-hydroxyethyl)carbamoyl)-3-fluorophenyl)pyrazin-2-yl)cyclohexyl) carbamate], inhibition was half-maximal at 0.0559 nM (IC50).

In the case of `Nc1ncc([C@H]2CC[C@H](O)CC2)cc1-c1ccc(C(=O)N[C@H](CO)c2cccc(Cl)c2)c(F)c1` [Example 442, 4-(2-amino-5-((1r,4S)-4-hydroxy-cyclohexyl)pyridin-3-yl)-N-((S)-1-(3-chlorophenyl)-2-hydroxyethyl)-2-fluorobenzamide], it took 0.339 nM to reach half-maximal inhibition (IC50).

For the compound `C[C@@H](NC(=O)c1ccc(-c2cc([C@H]3CC[C@H](O)CC3)cnc2N)cc1F)c1cc(F)cc(S(C)(=O)=O)c1` [Example 443, 4-(2-amino-5-((1r,4R)-4-hydroxy-cyclohexyl)pyridin-3-yl)-2-fluoro-N-((R)-1-(3-fluoro-5-(methylsulfonyl)phenyl)ethyl) benzamide], 0.345 nM corresponded to half-maximal inhibition (IC50).

Regarding `Nc1ncc([C@H]2CC[C@@H](F)CC2)nc1-c1ccc(C(=O)N[C@H](CO)c2cccc(Cl)c2)c(F)c1` [Example 448, 4-(3-amino-6-((1s,4R)-4-fluorocyclohexyl)pyrazin-2-yl)-N-((S)-1-(3-chlorophenyl)-2-hydroxyethyl)-2-fluorobenzamide], the IC50 was 0.371 nM.

Take `Nc1ncc([C@H]2CC[C@H](F)CC2)nc1-c1ccc(C(=O)N[C@H](CO)c2cccc(Cl)c2)c(F)c1` [Example 449, 4-(3-amino-6-((1r,4S)-4-fluorocyclohexyl)pyrazin-2-yl)-N-((S)-1-(3-chlorophenyl)-2-hydroxyethyl)-2-fluorobenzamide]: half-maximal inhibition (IC50) required 0.184 nM.

Compound `N#CC1CCC(c2cnc(N)c(-c3ccc(C(=O)N[C@H](CO)c4cc(F)cc(Br)c4)c(F)c3)n2)CC1` (stereo partly drawn) [Example 450, (S)-4-(3-amino-6-(4-cyanocyclohexyl)pyrazin-2-yl)-N-(1-(3-bromo-5-fluorophenyl)-2-hydroxyethyl)-2-fluorobenzamide] came in with an IC50 of 1.5 nM.

With `N#CC1CCC(c2cnc(N)c(-c3ccc(C(=O)N[C@H](CO)c4cc(F)cc(Br)c4)c(F)c3)n2)CC1` (stereo partly drawn) [Example 451, (S)-4-(3-amino-6-(4-cyanocyclohexyl)pyrazin-2-yl)-N-(1-(3-bromo-5-fluorophenyl)-2-hydroxyethyl)-2-fluorobenzamide], the IC50 was found to be 0.0442 nM.

In the case of `CNC[C@@H](NC(=O)c1ccc(-c2nc([C@H]3CC[C@H](O)C(F)(F)C3)cnc2N)cc1F)c1cc(F)cc(Br)c1` [Example 458], the IC50 came to 0.0823 nM.

As to `Nc1ncc([C@@H]2CC[C@@H](O)C(F)(F)C2)nc1-c1ccc(C(=O)N[C@H](CO)c2cc(F)cc(Br)c2)c(F)c1` [Example 459, 4-(3-amino-6-((1R,4R)-3,3-difluoro-4-hydroxy-cyclohexyl)pyrazin-2-yl)-2-fluoro-N-((S)-1-(3-fluoro-5-bromophenyl)-2-hydroxyethyl) benzamide], half-maximal inhibition (IC50) was put at 0.0261 nM.

In turn, `Nc1ncc([C@H]2CC[C@H](O)C(F)(F)C2)nc1-c1ccc(C(=O)N[C@H](CO)c2cc(F)cc(Br)c2)c(F)c1` [Example 460, 4-(3-amino-6-((1S,4S)-3,3-difluoro-4-hydroxy-cyclohexyl)pyrazin-2-yl)-2-fluoro-N-((S)-1-(3-fluoro-5-bromophenyl)-2-hydroxyethyl) benzamide] came in with an IC50 of 0.0397 nM.

With `Nc1ncc([C@@H]2CC[C@@H](O)[C@H](O)C2)nc1-c1ccc(C(=O)N[C@H](CO)c2cc(F)cc(I)c2)c(F)c1` [Example 461, 4-(3-amino-6-((1R,3R,4R)-3,4-dihydroxy-cyclohexyl)pyrazin-2-yl)-2-fluoro-N-((S)-1-(3-fluoro-5-iodophenyl)-2-hydroxyethyl) benzamide], half-maximal inhibition (IC50) required 0.00431 nM.

`Nc1ncc([C@@H]2CC[C@H](O)[C@H](O)C2)nc1-c1ccc(C(=O)N[C@H](CO)c2cc(F)cc(I)c2)c(F)c1` [Example 462, 4-(3-amino-6-((1R,3R,4S)-3,4-dihydroxy-cyclohexyl)pyrazin-2-yl)-2-fluoro-N-((S)-1-(3-fluoro-5-iodophenyl)-2-hydroxyethyl) benzamide] displayed a 50% inhibitory concentration (IC50) of 0.135 nM.

In turn, `Nc1ncc([C@H]2CC[C@H](O)[C@@H](O)C2)nc1-c1ccc(C(=O)N[C@H](CO)c2cc(F)cc(I)c2)c(F)c1` [Example 463, 4-(3-amino-6-((1S,3S,4S)-3,4-dihydroxy-cyclohexyl)pyrazin-2-yl)-2-fluoro-N-((S)-1-(3-fluoro-5-iodophenyl)-2-hydroxyethyl) benzamide] displayed an IC50 of 0.0055 nM.

Compound `Nc1ncc([C@H]2CC[C@@H](O)[C@@H](O)C2)nc1-c1ccc(C(=O)N[C@H](CO)c2cc(F)cc(I)c2)c(F)c1` [Example 464, 4-(3-amino-6-((1S,3S,4R)-3,4-dihydroxy-cyclohexyl)pyrazin-2-yl)-2-fluoro-N-((S)-1-(3-fluoro-5-iodophenyl)-2-hydroxyethyl) benzamide] displayed a concentration for half-maximal inhibition (IC50) of 0.137 nM.

Compound `Nc1ncc([C@@H]2CC[C@@H](O)[C@H](O)C2)nc1-c1ccc(C(=O)N[C@H](CO)c2cc(F)cc(Br)c2)c(F)c1` [Example 465, 4-(3-amino-6-((1R,3R,4R)-3,4-dihydroxy-cyclohexyl)pyrazin-2-yl)-2-fluoro-N-((S)-1-(3-fluoro-5-bromophenyl)-2-hydroxyethyl) benzamide] yielded an IC50 of 0.0187 nM.

As for `Nc1ncc([C@H]2CC[C@@H](O)[C@@H](O)C2)nc1-c1ccc(C(=O)N[C@H](CO)c2cc(F)cc(Br)c2)c(F)c1` [Example 466, 4-(3-amino-6-((1S,3S,4R)-3,4-dihydroxy-cyclohexyl)pyrazin-2-yl)-2-fluoro-N-((S)-1-(3-fluoro-5-bromophenyl)-2-hydroxyethyl) benzamide], the IC50 was 0.218 nM.

Compound `Nc1ncc([C@H]2CC[C@H](O)[C@@H](O)C2)nc1-c1ccc(C(=O)N[C@H](CO)c2cc(F)cc(Br)c2)c(F)c1` [Example 467, 4-(3-amino-6-((1S,3S,4S)-3,4-dihydroxy-cyclohexyl)pyrazin-2-yl)-2-fluoro-N-((S)-1-(3-fluoro-5-bromophenyl)-2-hydroxyethyl) benzamide] returned an IC50 of 0.0446 nM.

As for `Nc1ncc([C@@H]2CC[C@H](O)[C@H](O)C2)nc1-c1ccc(C(=O)N[C@H](CO)c2cc(F)cc(Br)c2)c(F)c1` [Example 468, 4-(3-amino-6-((1R,3R,4S)-3,4-dihydroxy-cyclohexyl)pyrazin-2-yl)-2-fluoro-N-((S)-1-(3-fluoro-5-bromophenyl)-2-hydroxyethyl) benzamide], it took 0.251 nM to reach half-maximal inhibition (IC50).
